Laboratory results as given in the NIST ThermoML archive (doi:10.1016/j.jct.2016.10.022).
Numbers after ± are expanded uncertainties.

Tests used:
[1] = Crystal; DTA
[2] = Molar enthalpy of transition or fusion; settings: Crystal; DSC

CC[C@H](C)[C@H]1O[C@]2(C=C[C@@H]1C)C[C@@H]1C[C@@H](C/C=C(\C)[C@@H](O[C@H]3C[C@H](OC)[C@@H](O[C@H]4C[C@H](OC)[C@@H](O)[C@H](C)O4)[C@H](C)O3)[C@@H](C)/C=C/C=C3\CO[C@@H]4[C@H](O)C(C)=C[C@@H](C(=O)O1)[C@]34O)O2 [Avermectin B1a]
Normal melting temperature [1]: 163.29 ± 0.61 °C
Molar enthalpy of transition or fusion [2]: 28.9 ± 0.64 kJ/mol
